Legend:
Assay in all cases: Test D pre-/postemergence plant response
Assay type in all cases: in vivo
[1] = test system: goosegrass (Eleusine indica)
In short: (§1)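 Both preemergence and postemergence treatments were made at the same time, with the compound in a non-phytotoxic, surfactant-containing solvent mixture. Plants grew in a greenhouse for 14–21 days before visual evaluation, scored from 0 (no effect) to 100 (complete control).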

[2] = test system: purslane (common purslane, Portulaca oleracea)
In short: as §1

[3] = test system: kochia (Kochia scoparia)
In short: as §1

[4] = test system: nutsedge (purple nutsedge, Cyperus rotundus)
In short: as §1

[5] = test system: groundsel (common groundsel, Senecio vulgaris); conditions: Postemergence
In short: as §1

[6] = test system: spanishneedles (Bidens bipinnata)
In short: as §1

[7] = test system: morningglory (pitted morningglory, Ipomoea lacunosa)
In short: as §1

[8] = test system: field bindweed (Convolvulus arvensis)
In short: as §1

[9] = test system: large crabgrass (Digitaria sanguinalis)
In short: as §1

[10] = test system: Surinam grass (Brachiaria decumbens)
In short: as §1

[11] = test system: johnsongrass (Sorghum halepense)
In short: as §1

[12] = test system: chickweed (common chickweed, Stellaria media); conditions: Postemergence, 31 g ai/ha; scale 0 to 100
In short: as §1

[13] = test system: naked crabgrass (Digitaria nuda)
In short: as §1

[14] = test system: Italian ryegrass (Lolium multiflorum)
In short: as §1

[15] = test system: bluegrass (annual bluegrass, Poa annua)
In short: as §1

[16] = Postemergence, 16 g ai/ha, scale 0 to 100
[17] = Postemergence, 31 g ai/ha, scale 0 to 100
[18] = Postemergence, 125 g ai/ha, scale 0 to 100 (0 no effect, 100 complete control)
[19] = Postemergence, 62 g ai/ha, scale 0 to 100 (0 no effect, 100 complete control)
[20] = Preemergence, 16 g ai/ha, scale 0 to 100, 0 no effect, 100 complete control
[21] = Preemergence, 31 g ai/ha, scale 0 to 100 (0 no effect, 100 complete control)
[22] = Preemergence, 62 g ai/ha, scale 0 to 100
[23] = Preemergence, 125 g ai/ha, scale 0 to 100

Question: Which results are given for `O=C1CCCC(O)=C1C(=O)c1cnc(-c2cccnc2)n(-c2ccccc2)c1=O` [Compound 113, 5-[(2-hydroxy-6-oxo-1-cyclohexen-1-yl)carbonyl]-3-phenyl-2-(3-pyridinyl)-4(3H)-pyrimidone]?
Answer: Plant response rating, Goosegrass [1, 16]: 40; Plant response rating, Goosegrass [1, 17]: 50; Plant response rating, Goosegrass [1, 18]: 65; Plant response rating, Goosegrass [1, 19]: 65; Plant response rating, Goosegrass [1, 20]: 25; Plant response rating, Goosegrass [1, 21]: 25; Plant response rating, Goosegrass [1, 22]: 75; Plant response rating, Goosegrass [1, 23]: 95; Plant response rating, Purslane [2, 16]: 30; Plant response rating, Purslane [2, 17]: 30; Plant response rating, Purslane [2, 18]: 75; Plant response rating, Purslane [2, 19]: 50; Plant response rating, Purslane [2, 20]: 90; Plant response rating, Purslane [2, 21]: 100; Plant response rating, Purslane [2, 22]: 100; Plant response rating, Purslane [2, 23]: 100; Plant response rating, Kochia [3, 16]: 25; Plant response rating, Kochia [3, 17]: 40; Plant response rating, Kochia [3, 18]: 50; Plant response rating, Kochia [3, 19]: 50; Plant response rating, Kochia [3, 21]: 70; Plant response rating, Kochia [3, 22]: 100; Plant response rating, Kochia [3, 23]: 100; Plant response rating, Nutsedge, Purple [4, 16]: 0; Plant response rating, Nutsedge, Purple [4, 17]: 10; Plant response rating, Nutsedge, Purple [4, 18]: 50; Plant response rating, Nutsedge, Purple [4, 19]: 35; Plant response rating, Nutsedge, Purple [4, 20]: 0; Plant response rating, Nutsedge, Purple [4, 21]: 10; Plant response rating, Nutsedge, Purple [4, 22]: 20; Plant response rating, Nutsedge, Purple [4, 23]: 80; Plant response rating, Groundsel ([5]; 16 g ai/ha, scale 0 to 100): 90; Plant response rating, Groundsel ([5]; 31 g ai/ha, scale 0 to 100): 90; Plant response rating, Groundsel ([5]; 125 g ai/ha, scale 0 to 100 (0 no effect, 100 complete control)): 100; Plant response rating, Groundsel ([5]; 62 g ai/ha, scale 0 to 100 (0 no effect, 100 complete control)): 100; Plant response rating, Spanishneedles [6, 16]: 35; Plant response rating, Spanishneedles [6, 17]: 35; Plant response rating, Spanishneedles [6, 18]: 60; Plant response rating, Spanishneedles [6, 19]: 50; Plant response rating, Spanishneedles [6, 20]: 0; Plant response rating, Spanishneedles [6, 21]: 0; Plant response rating, Spanishneedles [6, 23]: 95; Plant response rating, Morningglory [7, 16]: 50; Plant response rating, Morningglory [7, 17]: 60; Plant response rating, Morningglory [7, 18]: 90; Plant response rating, Morningglory [7, 19]: 90; Plant response rating, Morningglory [7, 20]: 60; Plant response rating, Morningglory [7, 21]: 60; Plant response rating, Morningglory [7, 22]: 60; Plant response rating, Morningglory [7, 23]: 90; Plant response rating, Field Bindweed [8, 16]: 50; Plant response rating, Field Bindweed [8, 17]: 65; Plant response rating, Field Bindweed [8, 19]: 65; Plant response rating, Field Bindweed [8, 20]: 0; Plant response rating, Field Bindweed [8, 21]: 20; Plant response rating, Field Bindweed [8, 22]: 65; Plant response rating, Field Bindweed [8, 23]: 90; Plant response rating, Crabgrass, Large [9, 16]: 60; Plant response rating, Crabgrass, Large [9, 17]: 60; Plant response rating, Crabgrass, Large [9, 18]: 70; Plant response rating, Crabgrass, Large [9, 19]: 70; Plant response rating, Crabgrass, Large [9, 20]: 20; Plant response rating, Crabgrass, Large [9, 21]: 30; Plant response rating, Crabgrass, Large [9, 22]: 95; Plant response rating, Crabgrass, Large [9, 23]: 95; Plant response rating, Surinam Grass [10, 16]: 60; Plant response rating, Surinam Grass [10, 17]: 75; Plant response rating, Surinam Grass [10, 19]: 80; Plant response rating, Surinam Grass [10, 21]: 40; Plant response rating, Surinam Grass [10, 23]: 95; Plant response rating, Johnsongrass [11, 16]: 40; Plant response rating, Johnsongrass [11, 17]: 40; Plant response rating, Johnsongrass [11, 18]: 75; Plant response rating, Johnsongrass [11, 19]: 65; Plant response rating, Johnsongrass [11, 20]: 0; Plant response rating, Johnsongrass [11, 21]: 0; Plant response rating, Johnsongrass [11, 22]: 10; Plant response rating, Johnsongrass [11, 23]: 10; Plant response rating, Chickweed [12]: 70; Plant response rating, Crabgrass, Naked [13, 16]: 50; Plant response rating, Crabgrass, Naked [13, 17]: 65; Plant response rating, Crabgrass, Naked [13, 18]: 75; Plant response rating, Crabgrass, Naked [13, 19]: 70; Plant response rating, Crabgrass, Naked [13, 20]: 0; Plant response rating, Crabgrass, Naked [13, 21]: 0; Plant response rating, Crabgrass, Naked [13, 22]: 90; Plant response rating, Crabgrass, Naked [13, 23]: 100; Plant response rating, Ryegrass, Italian [14, 16]: 0; Plant response rating, Ryegrass, Italian [14, 17]: 20; Plant response rating, Ryegrass, Italian [14, 18]: 50; Plant response rating, Ryegrass, Italian [14, 19]: 35; Plant response rating, Ryegrass, Italian [14, 20]: 0; Plant response rating, Ryegrass, Italian [14, 21]: 0; Plant response rating, Ryegrass, Italian [14, 23]: 20; Plant response rating, Ryegrass, Italian ([14]; Preemergence, rate not given, scale 0 to 100, 0 no effect, 100 complete control): 0; Plant response rating, Bluegrass [15, 16]: 0; Plant response rating, Bluegrass ([15]; Postemergence, 31 g ai/ha, scale 0 to 100 (0 no effect, 100 complete control)): 0; Plant response rating, Bluegrass [15, 18]: 0; Plant response rating, Bluegrass [15, 19]: 0; Plant response rating, Bluegrass [15, 20]: 0; Plant response rating, Bluegrass [15, 21]: 0; Plant response rating, Bluegrass [15, 22]: 0; Plant response rating, Bluegrass [15, 23]: 0

— patent US8952024B2, “Herbicidal pyrimidone derivatives” (E I du Pont de Nemours and Company, priority 2009, dated 2015)
